In experiment [1] the target is T1, CB2 (Homo sapiens, UniProt P34972). The experiment can be described thus: cell-based. It counts as cell-based. Particulars: for functional behaviour at CB2: cAMP functional assay.
The target of experiment [2] is T1, CB2. Particulars: read-out: Ki CB2; partial agonist on CB2; ref Dhopeshwarkar et al., 2017; cited from earlier work.
Experiment [3] addresses CB1. Particulars: read-out: Ki CB1; antagonist on CB1; ref Dhopeshwarkar et al., 2017; cited from earlier work.

T1 sequence (P34972 whole entry): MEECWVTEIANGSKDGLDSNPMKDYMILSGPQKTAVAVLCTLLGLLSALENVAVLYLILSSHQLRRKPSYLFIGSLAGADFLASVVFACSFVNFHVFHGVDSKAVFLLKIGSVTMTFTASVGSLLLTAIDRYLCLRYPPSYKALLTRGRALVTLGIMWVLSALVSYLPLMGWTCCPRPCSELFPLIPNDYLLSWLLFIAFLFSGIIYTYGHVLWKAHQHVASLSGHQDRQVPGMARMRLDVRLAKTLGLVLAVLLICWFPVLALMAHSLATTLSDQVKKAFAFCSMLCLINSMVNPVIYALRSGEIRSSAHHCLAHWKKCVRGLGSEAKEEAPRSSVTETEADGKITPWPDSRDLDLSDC

The term EC50 denotes the concentration needed to bring the measured effect to its halfway point. Low values mean an effect from little substance, high ones a need for much substance. With `CCN(CC)c1ccc(CN(Cc2cc(OC)c(OC)c(OC)c2)S(=O)(=O)/C=C/c2ccccc2)cc1` [XIE55, (E)-N-(4-(diethylamino)benzyl)-2-phenyl-N-(3,4,5-trimethoxybenzyl)ethene-1-sulfonamide], in experiment [1], the response was half-maximal at 1.5 ± 0.4 µM (EC50) and the “functional behaviour at CB2” value is reported as “inverse agonist”.

In the case of `CCN(CC)c1ccc(CN(Cc2cc(OC)c(OC)c(OC)c2)S(=O)(=O)c2cccs2)cc1` [XIE57, N-(4-(diethylamino)benzyl)-N-(3,4,5-trimethoxybenzyl)thiophene-2-sulfonamide], in experiment [1], the EC50 came out at 6.9 ± 2.9 µM and the “functional behaviour at CB2” value is “partial agonist”.

What is called Ki is a dissociation constant, usually derived from enzyme kinetics or from competition with a known ligand. On to `COc1ccc2c(c1)c(CCN1CCOCC1)c(C)n2C(=O)c1cccc(Cl)c1Cl` [GW-405,833], for which the results for the Ki in experiment [2] and in experiment [3] were 0.00392 ± 0.00158 µM and 4.77 ± 1.68 µM, respectively.

The record behind these values is publication PMC8247115 (Cell, 2020).
